The target of experiment [1] is PRMT5/MEP50 (Homo sapiens (Human), UniProt O14744). The experiment can be described thus: PRMT5/MEP50 enzyme inhibition assay, Assay 2 (384-well, MALDI mass spectrometry, histone H4 1-21 peptide). The class given is biochemical. The following applies: 1 μM SAM, 0.1 μM histone H4 1-21 peptide, 18-hour incubation at rt. On the procedure:
Compounds were tested for inhibition of methyltransferase activity in 384-well plate assay format using mass spectrometry technology. In this enzyme inhibition assay, compounds were tested in a 11-dose IC50 mode with 3-serial dilution, in duplicate, starting at 1, 10, or 100 μM. Reactions were carried out at 1 μM SAM and 0.1 μM histone H4 1-21 peptide as substrates for methyl transfer. Following an 18-hour incubation at rt, the reaction was stopped with 0.5% formic acid. Products of the reaction were captured while unreacted substrates were washed away, prior to MALDI mass spectrometry detection and analysis. Percent enzyme activity was calculated based on no inhibitor DMSO control as 100% activity. EC50 values were determined in GraphPad Prism 8 using the [inhibitor] vs. response—Variable slope (four parameters) function.
Compounds of Formula (I) show activity in this assay. A value of ‘A’ in the table below indicates an IC50 of <1 nM, a value of ‘B’ indicates an IC50≥1 nM to ≤100 nM, and a value of ‘C’ indicates an IC50 value of >100 nM.

In experiment [2] the test system is A549 lung carcinoma cells. The experiment can be described thus: Cell proliferation assay, A549 (CellTiter-Glo, 7 days). The class given is cell-based. The following applies: A549, 7 days, CellTiter-Glo 2.0. On the procedure:
(§1) HepG2 hepatoma cells (ATCC, HB-8065) were maintained in DMEM with high glucose (Lonza, 12-914F) supplemented with 10% fetal bovine serum (FBS; Biowest, S181B-500) and 2 mM L-glutamine (Biowest, X0551-100) at 37° C. and 5% CO2. A549 lung carcinoma cells (ATCC, CCL-185) were maintained in F-12K medium (ThermoFisher 21127030) supplemented with 10% FBS at 37° C. and 5% CO2. Exponentially growing HepG2 or A549 were plated in white, clear-bottom 96-well plates (Corning, 3903) at a cell density of 2000 (HepG2) or 350 (A549) cells per well in 199 μL of HepG2 medium. Next, 1 μL of a 5-fold 9-point dilution series of test compound in DMSO was added to the different wells. Cells were incubated at 37° C. 5% CO2 for 7 days. Cell viability was assessed on day 7 with the CellTiter-Glo 2.0 Cell Viability assay kit (Promega, G9243) to quantify the intracellular amounts of ATP: first, 100 μL of cell culture medium was removed from each well, next 100 μL of CellTiter-Glo® 2.0 Reagent was added and plates were shaken for 2 minutes on an orbital shaker. After 10 minutes stabilization at room temperature, read-out was performed on a ThermoFisher VarioSkan Lux plate reader. Counts were normalized to DMSO control (0% inhibition) and the cytotoxic control (100% inhibition) and EC50 values were determined in GraphPad Prism 8 using the [Agonist] vs. response—Variable slope (four parameters) function.
(§2) As shown by the data of Table 2, compounds of Formula (I) have activity in this assay. A value of ‘A’ in the table below indicates an EC50 of <20 nM, a value of ‘B’ indicates an EC50≥20 nM to <100 nM, a value of ‘C’ indicates an EC50 value of EC50≥100 nM to <1000 nM and a value of ‘D’ indicates an EC50≥1000 nM
(In ATP-based viability assays light output follows the ATP content of the culture.)

The subject of experiment [3] is HepG2 hepatoma cells. Briefly: Cell proliferation assay, HepG2 (CellTiter-Glo, 7 days). Conditions: HepG2, 7 days, CellTiter-Glo 2.0. The class given is cell-based. The protocol:
as §1, §2

Results on 10 molecules are retold here after US11198699B2 (ALIGOS THERAPEUTICS, INC., priority 2019, dated 2021).

Sequence of PRMT5/MEP50 (O14744 whole entry): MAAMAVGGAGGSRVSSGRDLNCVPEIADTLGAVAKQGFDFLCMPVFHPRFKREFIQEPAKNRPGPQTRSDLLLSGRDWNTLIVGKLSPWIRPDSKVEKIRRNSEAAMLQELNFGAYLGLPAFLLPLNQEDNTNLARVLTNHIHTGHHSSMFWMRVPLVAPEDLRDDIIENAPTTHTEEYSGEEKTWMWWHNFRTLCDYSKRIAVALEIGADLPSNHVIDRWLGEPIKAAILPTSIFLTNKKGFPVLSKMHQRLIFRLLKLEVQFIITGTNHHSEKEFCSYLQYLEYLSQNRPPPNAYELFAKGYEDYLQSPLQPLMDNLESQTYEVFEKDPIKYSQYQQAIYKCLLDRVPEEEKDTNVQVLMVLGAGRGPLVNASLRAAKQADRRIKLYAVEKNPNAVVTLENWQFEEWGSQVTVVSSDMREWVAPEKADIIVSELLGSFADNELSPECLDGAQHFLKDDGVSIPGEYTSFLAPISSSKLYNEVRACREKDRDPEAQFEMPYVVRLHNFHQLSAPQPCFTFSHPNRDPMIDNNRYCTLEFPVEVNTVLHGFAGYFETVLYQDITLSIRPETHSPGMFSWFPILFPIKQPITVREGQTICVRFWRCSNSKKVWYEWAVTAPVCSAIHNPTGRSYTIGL
Sequence of PRMT5/MEP50 (Q9BQA1 whole entry partner): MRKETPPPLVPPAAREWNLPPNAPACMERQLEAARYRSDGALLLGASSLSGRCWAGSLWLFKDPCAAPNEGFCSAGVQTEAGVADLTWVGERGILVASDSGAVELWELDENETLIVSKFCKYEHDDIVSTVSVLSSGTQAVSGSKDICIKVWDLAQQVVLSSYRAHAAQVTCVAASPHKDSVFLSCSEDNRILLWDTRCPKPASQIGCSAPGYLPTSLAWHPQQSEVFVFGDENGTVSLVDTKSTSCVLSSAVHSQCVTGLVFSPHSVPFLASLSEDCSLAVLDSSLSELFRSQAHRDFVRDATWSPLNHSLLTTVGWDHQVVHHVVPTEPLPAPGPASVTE

`CC(C)C(=O)O[C@H]1[C@H](n2ccc3c(N)ncnc32)C[C@](C)(CCc2ccc3nc(N)ccc3c2)[C@H]1OC(=O)C(C)C` [Compound 26-A]: the half-inhibitory concentration (IC50) (commonly the concentration at which inhibition is half-maximal) in experiment [1] was more than 100 nM. The concentration for a half-maximal effect (EC50) in experiment [2] and in experiment [3] was not below 1000 nM in each case.

In turn, `C[C@]1(CCc2ccc3cc(C#N)c(N)nc3c2)C[C@@H](n2ccc3c(N)ncnc32)[C@H](O)[C@@H]1O` [Compound 27] yielded an IC50 in experiment [1] of less than 1 nM. The EC50 in experiment [2] and in experiment [3] was 20 to 100 nM throughout.

In turn, `C[C@]1(CCc2ccc3cc(Cl)c(N)nc3c2)C[C@@H](n2ccc3c(N)ncnc32)[C@H](O)[C@]1(C)O` [Compound 28] yielded an IC50 in experiment [1] of less than 1 nM. Also, the EC50 (as a rule, the midpoint of the concentration-response curve) was 100 to 1000 nM in experiment [2] and 20 to 100 nM in experiment [3].

In experiment [1], `Cn1c(N)nc2cc(CC[C@@]3(C)C[C@@H](n4ccc5c(N)ncnc54)[C@H](O)[C@@H]3O)ccc2c1=O` [Compound 29] showed an IC50 of less than 1 nM. Also, the results for the half-maximal effective concentration (EC50) in experiment [2] and in experiment [3] were 20 to 100 nM and less than 20 nM, respectively.

`C[C@]1(CCc2cc(F)c3cc(Cl)c(N)nc3c2)C[C@@H](n2ccc3c(N)ncnc32)[C@H](O)[C@@H]1O` [Compound 30, (1S,2R,3S,5R)-3-(2-(2-amino-3-chloro-5-fluoroquinolin-7-yl)ethyl)-5-(4-amino-7H-pyrrolo[2,3-d]pyrimidin-7-yl)-3-methylcyclopentane-1,2-diol] yielded an IC50 in experiment [1] of less than 1 nM. Also, the half-maximal effective concentration (EC50) in experiment [2] (Homo sapiens, A549, 168 h) is less than 20 nM; in experiment [3] (Homo sapiens, 168 h), less than 20 nM.

Regarding `C[C@]1(CCc2ccc3cc4c(nc3c2)NC(=O)CO4)C[C@@H](n2ccc3c(N)ncnc32)[C@H](O)[C@@H]1O` [Compound 31, 7-(2-((1S,2R,3S,4R)-4-(4-amino-7H-pyrrolo[2,3-d]pyrimidin-7-yl)-2,3-dihydroxy-1-methylcyclopentyl)ethyl)-2H-[1,4]oxazino[3,2-b]quinolin-3(4H)-one], the IC50 in experiment [1] was less than 1 nM. Moreover, the half-maximal effective concentration (EC50) in experiment [2] (Homo sapiens, A549, 168 h) was not below 1000 nM; in experiment [3] (Homo sapiens, 168 h), 100 to 1000 nM.

Turning to `Nc1nc2cc(CC[C@@]3(F)C[C@@H](n4ccc5c(N)ncnc54)[C@H](O)[C@@H]3O)cc(F)c2cc1Cl` [Compound 36, (1S,2S,3R,5R)-3-(2-(2-amino-3-chloro-5-fluoroquinolin-7-yl)ethyl)-5-(4-amino-7H-pyrrolo[2,3-d]pyrimidin-7-yl)-3-fluorocyclopentane-1,2-diol], in experiment [1], the IC50 is less than 1 nM. Also, the concentration for a half-maximal effect (EC50) in experiment [2] (Homo sapiens, A549, 168 h) was less than 20 nM; in experiment [3] (Homo sapiens, 168 h) it was less than 20 nM.

In turn, `C[C@]1(CCc2cc(F)c3ccc(N)nc3c2)C[C@@H](n2ccc3c(N)ncnc32)[C@H](O)[C@@H]1O` [Compound 37, (1S,2R,3S,5R)-3-(2-(2-amino-5-fluoroquinolin-7-yl)ethyl)-5-(4-amino-7H-pyrrolo[2,3-d]pyrimidin-7-yl)-3-methylcyclopentane-1,2-diol] gave an IC50 in experiment [1] of less than 1 nM. In addition, the EC50 in experiment [2] (Homo sapiens, A549, 168 h) was less than 20 nM; in experiment [3] (Homo sapiens, 168 h), less than 20 nM.

Molecule `C[C@]1(CCc2ccc3ccc(N)nc3c2)C[C@@H](n2ccc3c(N)nccc32)[C@H](O)[C@@H]1O` [Compound 38, (1S,2R,3S,5R)-5-(4-amino-1H-pyrrolo[3,2-c]pyridin-1-yl)-3-(2-(2-aminoquinolin-7-yl)ethyl)-3-methylcyclopentane-1,2-diol] returned an IC50 in experiment [1] of less than 1 nM. For the same molecule, the EC50 was less than 20 nM in experiment [2] (Homo sapiens, A549, 168 h) and less than 20 nM in experiment [3] (Homo sapiens, 168 h).

Take `C[C@]1(CCc2cc(F)c3cc(Cl)c(N)nc3c2)C[C@@H](n2ccc3c(N)nccc32)[C@H](O)[C@@H]1O` [Compound 39, (1S,2R,3S,5R)-5-(4-amino-1H-pyrrolo[3,2-c]pyridin-1-yl)-3-(2-(2-amino-3-chloro-5-fluoroquinolin-7-yl)ethyl)-3-methylcyclopentane-1,2-diol]: the IC50 in experiment [1] was less than 1 nM. The EC50 in experiment [2] (Homo sapiens, A549, 168 h) lay within 20 to 100 nM; in experiment [3] (Homo sapiens, 168 h), 20 to 100 nM.
